# Tests used:
# eNOS gene = eNOS gene expression by semi-quantitative RT-PCR in H9C2 cells; format: cell-based, rat; conditions: for Regulation in Terms of Folds, eNOS (normalized to β-Actin): control = 1.00
# Procedure: The test substances were evaluated for its gene expression activity in H9C2 (rat cardiomyocytes), the concentration of test substances (G2, G3 and G4,) is 500 μg/ml were taken for gene expression studies. […] [Hunter C. Champion, et al., PNAS, 2005; 102:5:1661-1666.]
# eNOS were estimated for the test substance by gene expression method, where the level of expression of eNOS expression on […] Cardiomyocytes (H9C2) was determined with respect to untreated H9C2 cells.
# The H9C2 cells treated with test samples were subjected to cell lysis by treating with Tri-extract reagent. Chloroform was added, to isolate the total RNA from the sample and subjected for centrifugation. Out of the three distinct layers observed, upper layer was collected in fresh tube and equal volume of isopropanol was added and incubated at […] for 10 mins. After the incubation followed by centrifugation, appropriate volume of ethanol was added to resuspend the pellet. After incubation and centrifugation, the pellet was air dried and appropriate volume of TAE buffer was added. The isolated total RNA was further used for cDNA synthesis. cDNA was synthesized by priming with oligo-dT primers followed by reverse transcriptase enzyme treatment according to manufacturer's protocol (Thermoscientific). The cDNA thus synthesized was taken up for PCR for the amplification of eNOS and GAPDH (internal control).
# The mRNA expression levels of eNOS were determined using semi-quantitative reverse transcriptase-polymerase chain reaction (RT-PCR). 50p of the reaction mixture was subjected to PCR for amplification of eNOS. cDNAs using specifically designed primers procured from Eurofins, India and as an internal control GAPDH/3-Actin (House-keeping genes) was co-amplified with each reaction.
# eNOS: 95° C. for 5 min followed by 35 cycles of denaturation at 95° C. for 30 seconds, annealing Temp for 30 seconds and extension at 72° C. for 45 seconds. This was followed by final extension at 72° C. for 10 min.
# [1] = test system: Swiss albino mice (tail immersion model); experiment: Tail immersion model, analgesic potential in experimental mice; format: in vivo; conditions: for Tail immersion latency reaction time: water 55° C., cut off 15 second, Mean ± SEM, n=6; for Percentage maximum possible effect: [(Post drug latency-Pre drug latency)/(15-Pre drug latency)]×100
# Procedure: Animal Study—Evaluation of analgesic potential of the test substances against tail immersion model in experimental mice.
# Male Swiss albino mice weighing between 30-35 g were used. Mice were placed into individual cylindrical mice holders leaving the tail hanging out freely. The animals were allowed to get acclimatized to mice holders for 30 min before testing. The lower 5 cm portion of the tail was marked. This part of the tail was immersed in a cup of freshly filled water at 55° C. The reaction time was recorded using a stop-watch. After each determination the tail was carefully dried. The reaction time was determined before and periodically 0 min, 30 min, 60 min, 90 min, 120 min, 180 min and 240 min after the oral administration of test substance. The cut off time of immersion was 15 second. The percentage maximum possible effect (% MPE) was calculated using the following formula: [(Post drug latency-Pre drug latency)/(15-Pre drug latency)]×100.
# The values were expressed in Mean±SEM. The significance of in vivo data was analyzed by One way anova followed by Dunnet test. P<0.05 was considered as statistically significant.
smiles,measurement,setting,value
"CCCCCCCCCCCCCCCC(=O)NCCO [Composition P3A, palmitoylethanolamide]",eNOS expression over expressed as compared to the control,"eNOS gene; at tested doses (500 μg/ml), increase over control",0.25 folds
same,"Regulation in Terms of Folds, eNOS (normalized to β-Actin)",eNOS gene; test substance 500 μg/ml,1.25 fold
same,Tail immersion latency reaction time,"[1]; 0 Min, oral",2.50 s
same,Tail immersion latency reaction time,[1]; 30 Min after oral administration,5.17 s
same,Percentage maximum possible effect,[1]; 30 Min,21.33%
same,Tail immersion latency reaction time,[1]; 60 Min after oral administration,5.83 s
same,Percentage maximum possible effect,[1]; 60 Min,26.67%
same,Tail immersion latency reaction time,[1]; 90 Min after oral administration,6.50 s
same,Percentage maximum possible effect,[1]; 90 Min,32.00%
same,Tail immersion latency reaction time,[1]; 120 Min after oral administration,7.50 s
same,Percentage maximum possible effect,[1]; 120 Min,40.00%
same,Tail immersion latency reaction time,[1]; 180 Min after oral administration,8.33 s
same,Percentage maximum possible effect,[1]; 180 Min,46.67%
same,Tail immersion latency reaction time,[1]; 240 Min after oral administration,7.50 s
same,Percentage maximum possible effect,[1]; 240 Min,40.00%
same,Percentage maximum possible effect compared with Pain control group (in words),[1]; different intervals of time,significant increased
same,Tail immersion latency reaction time compared with Pain control group (in words),"[1]; different time intervals, One way anova, Dunnet test, P<0.05",significant increased
"CC(C)C[C@H](CN)CC(=O)O [Pregabalin (LYRICA ®) 75 mg, Pregabalin, reference compound]","Regulation in Terms of Folds, eNOS (normalized to β-Actin)",eNOS gene; 125 μg/ml,1.58 fold
same,eNOS gene expression up-regulated over control,"eNOS gene; standard product (125 μg/ml), increase over control",0.58 fold
same,Percentage maximum possible effect compared with Pain control group (in words),"[1]; mouse, in vivo",significant increased
same,Tail immersion latency reaction time compared with Pain control group (in words),"[1]; mouse, in vivo",significant increased
